The values that follow come from paper PMC12040169 (PLOS Biology, 2025).

One data set is described as follows: in vitro. Particulars: human, hela cells, % viability.
A word on the viability: it is a read-out of living cells in per cent, often relative to untreated cells. For the compound `CS(=O)(=O)Nc1ccc(CNC(=O)c2ccccc2Nc2cccc(C(F)(F)F)c2)cc1` [CBK161732], the viability at 28.5 h, 10 µM was 85.5%. Same read-out and setting: for `Nc1ncnc(NNC(=O)CNC(=O)c2ccccc2C(F)(F)F)c1[N+](=O)[O-]` [CBK267186] the value was 94.1%; for `CC(C)(C)OC(=O)N1CCC(C2OCc3cc(-c4ccc(S(C)(=O)=O)cn4)ccc3O2)CC1` (stereo not drawn) [CBK173326], 87.6%; for `Cc1cc2ccccc2n2c(=O)n(CCNC(=O)C(C)C)nc12` [CBK282876], 84.2%. Regarding `CN1CC(c2ccccc2)C2(CCNCC2)C1` (stereo not drawn) [CBK282225], the viability at 28.5 h, 10 µM was 105%. Still for that read-out and setting: for `O=c1c(Cc2ccccc2)c(O)c2ccccc2n1Cc1ccccc1` [CBK219368] the value was 85.8%. Same read-out and setting: for `COc1cccc(NC(=O)N2CCN3C(=O)[C@H](Cc4ccc(O)cc4)NC(=O)[C@@H]3C2)c1` [CBK289618] the value was 99%; for `Cc1cnc2[nH]c(C(C)C)c(CN3CCCOCC3)c2c1` [CBK284742], 90.7%; for `O=C(O)c1cccc(N2C(=O)c3cccc4c(C(=O)c5ccccc5)ccc(c34)C2=O)c1` [CBK299809], 74.2%. On the same count and under the same terms, for `c1ccc(-c2nc3cc4ccccc4cc3[nH]2)nc1` [CBK000130] the value was 82.5%; for `CCCc1[nH]nc(O)c1CCc1c(Cl)cccc1Cl` [CBK081403], 112%. As for `CC(C)(CC(=O)O)CC(=O)Nc1cc(S(=O)(=O)N2CCCC2)ccc1Cl` [CBK296702], the viability at 28.5 h, 10 µM worked out at 95.4%. Regarding `Cc1ccc(C(=O)NCCN2CCOCC2)c(NCCCn2ccnc2)n1` [CBK076371], the viability at 28.5 h, 10 µM worked out at 115%. Turning to `O=C(O)C1CCN(C(=O)CCN2C(=O)[C@@H]3Cc4ccccc4CN3C2=O)CC1` [CBK286682], the viability at 28.5 h, 10 µM came out at 88.2%. Take `Cn1cc(-c2nc(C(=O)NC3CCCN(c4ncccn4)C3)cs2)cn1` (stereo not drawn) [CBK305629]: the viability at 28.5 h, 10 µM stood at 77.7%.

As to `CN(CCCN1CCC(C(=O)NC(c2cccnc2)c2ccc3c(c2)OCO3)CC1)S(C)(=O)=O` (stereo not drawn) [CBK148505], the viability at 28.5 h, 10 µM was 93.1%. Same read-out and setting: for `Cc1oc(C(=O)O)cc1CSCc1cc(C(=O)O)oc1C` [CBK263275] the value was 101%; for `CC(NC(=O)c1ncoc1-c1ccccc1Cl)c1ccccn1` (stereo not drawn) [CBK282409], 94.8%; for `CC(=O)c1ccc(NC(=O)N[C@H]2CCN3C(=O)[C@@H](Cc4ccccc4)NC(=O)[C@H]23)cc1` [CBK289229], 85.9%. For `COc1ccc(S(=O)(=O)N2CCCC(C(=O)Nc3ccc(C(N)=O)cc3)C2)cc1C` (stereo not drawn) [CBK269163], the viability at 28.5 h, 10 µM amounted to 99.4%. `CC(=O)N1C[C@@H](N(C)C)[C@H](c2cn(C)c3ccccc23)C1` [CBK285007]: the viability at 28.5 h, 10 µM was found to be 99.5%. Same read-out and setting: for `CC(C)(C)C(=O)Nc1ccc(-c2nc3ccc(Cc4ccc5nc(-c6ccc(NC(=O)C(C)(C)C)cc6)oc(=O)c5c4)cc3c(=O)o2)cc1` [CBK261396] the value was 104%; for `Cc1nn(C)c(C)c1S(=O)(=O)n1ccn(-c2cccc(C(F)(F)F)c2)c1=O` [CBK106593], 98.7%. Consider `COc1cccn(CC(=O)N(C)CCc2scnc2C)c1=O` [CBK306726], for which the viability at 28.5 h, 10 µM is 94.2%.

On to `CN(CCN(C)/N=C/c1cccc2ccccc12)/N=C/c1cccc2ccccc12` [CBK262153], for which the viability at 28.5 h, 10 µM amounted to 107%.

For the compound `Cc1ccc(C(=O)NCc2ccco2)c(NCc2cccnc2)n1` [CBK076383], the viability at 28.5 h, 10 µM was found to be 102%. For the compound `O=C(NCC1CCCO1)C1(Cc2ccc(-c3ccc(F)c(F)c3)cc2)CCOCC1` (stereo not drawn) [CBK285534], the viability at 28.5 h, 10 µM was determined as 97.2%. `CC(c1cccs1)N(C)C(=O)NC1CCCc2c1cnn2CCO` (stereo not drawn) [CBK306289]: the viability at 28.5 h, 10 µM came out at 113%. On the same count and under the same terms, the same measure for `S=c1nc(-c2ccco2)n(Cc2ccccc2)c(=S)n1/C(=N/Cc1ccccc1)c1ccco1` [CBK223550]: 108%; for `CCN1C(=O)c2[nH]nc(-c3ccccc3O)c2C1c1cccc(O)c1` (stereo not drawn) [CBK288159]: 95.9%. The same measure, in the same setting: for `O=C(O)CC(NS(=O)(=O)c1cccc2nsnc12)C(=O)O` (stereo not drawn) [CBK073316] the value was 112%. Consider `Cc1nc2c(ccc3nc(NC(=O)c4ccccc4)sc32)s1` [CBK287560], for which the viability at 28.5 h, 10 µM turned out to be 91.7%.

Consider `COC(=O)Nc1ccc2c(c1)N(C(=O)CCN1CCN3CCCC3C1)c1ccccc1CC2` (stereo not drawn) [CBK278220C], for which the viability at 28.5 h, 10 µM was 93.1%.

For the compound `Cc1ccc(S(=O)(=O)NC[C@H]2C[C@@H]3CC[N@]2C[C@@H]3CN2CCOCC2)cc1` [CBK288758], the viability at 28.5 h, 10 µM amounted to 94.2%. Consider `O=C(C1CC1)N1C[C@@H](c2ccccc2)[C@H](c2cc(C(F)F)[nH]n2)C1` [CBK284791], for which the viability at 28.5 h, 10 µM was 91.1%. Consider `Cc1cc(=O)oc2cc(SCc3ccc(Cl)s3)ccc12` [CBK002898], for which the viability at 28.5 h, 10 µM amounted to 89.5%. For `Cn1cc(C(=O)N2CCCC(c3cc4ccccc4cn3)C2)cn1` (stereo not drawn) [CBK285155], the viability at 28.5 h, 10 µM came out at 106%. `CC(C(=O)c1ccc(-c2ccccc2F)cc1)N1CCN(c2ccc(C#N)cc2)CC1` (stereo not drawn) [CBK074706]: the viability at 28.5 h, 10 µM was found to be 92%. Still for that read-out and setting: for `N#Cc1ccc(CNC(=O)c2ccc(-c3ccc(OC(F)(F)F)cc3)nc2)cc1` [CBK156249] the value was 87.2%; for `CC(C)CCNCc1ccc(-c2cn(CC(=O)NCc3ccc(C(F)(F)F)cc3)cn2)cc1` [CBK165976], 91.7%. Still for that read-out and setting: for `O=C(O)C1CCCCC1C(=O)N1CCN(Cc2cccc3ccccc23)CC1` (stereo not drawn) [CBK270293] the value was 91.2%; for `O=C(O)c1c2c(nc3ccccc13)CCN(Cc1ccccc1)C2` [CBK286805], 87.4%. For `Cc1ccc(C(=O)Nc2nnc(C3=COCCO3)o2)cc1C` [CBK287413], the viability at 28.5 h, 10 µM stood at 104%. On the same count and under the same terms, the same measure for `FC(F)(F)c1csc(Nc2ccc(Cl)c(Cl)c2)n1` [CBK019093]: 85.6%. The same measure, in the same setting: for `CCc1nc2ccccc2n1CC(=O)O` [CBK111477] the value was 101%; for `OC(CNc1cccc2ccccc12)Cn1c2ccc(Br)cc2c2cc(Br)ccc21` (stereo not drawn) [CBK261420], 99.8%; for `CC(=O)Nc1cccc(-n2nnnc2SC2CCCC2)c1` [CBK305996], 95.3%. As for `Cc1c(CN(Cc2ccccc2)CC2CCCO2)cnn1C` (stereo not drawn) [CBK283263], the viability at 28.5 h, 10 µM is 94.3%. Same read-out and setting: for `CCOC(=O)CC(=O)CSc1nc2nc(C)cc(C)n2n1` [CBK268469] the value was 99.8%; for `COc1ccc(C(=O)[C@H]2CCCN(C(=O)c3ccco3)C2)cc1` [CBK284327], 99.7%. For `Cc1ccc(S(=O)(=O)N2CCC(N3CCN(CCO)CC3)CC2)cc1` [CBK264656G], the viability at 28.5 h, 10 µM was 96.8%. Turning to `Cc1sc(-c2cnccn2)nc1O` [CBK067738], the viability at 28.5 h, 10 µM came out at 97.3%. On the same count and under the same terms, the same measure for `CS(=O)(=O)Nc1ncc(-c2ccco2)cc1C(=O)Nc1ccon1` [CBK076512]: 89.6%. The same measure, in the same setting: the same measure for `O=C(O)CCN1CCC2(CCN(C(=O)c3cc(F)c(F)cc3F)C2)C1` (stereo not drawn) [CBK137123]: 86.8%; for `O=C(NC1CC1)c1ccc(-n2cccn2)c(C#Cc2cccnc2)c1` [CBK282449]: 107%; for `O=C(NCc1ccc(Cl)c(Cl)c1)N1CCCCC1CO` (stereo not drawn) [CBK156164]: 113%.

For `O=S(=O)(c1ccc(C(F)(F)F)cc1Cl)N1CCCN(Cc2ccc3cccc(O)c3n2)CC1` [CBK063036], the viability at 28.5 h, 10 µM was 101%. The same measure, in the same setting: for `O=C1COc2ccccc2C/C=C/CC2(CCN(Cc3cncnc3)CC2)CN1` [CBK292130] the value was 112%; for `O=C(O)c1ccccc1C(=O)N1CCC2(CC1)OCCc1c2[nH]c2ccccc12` [CBK046981], 94.9%; for `O=[N+]([O-])c1ccc(N/N=C/c2cnn(-c3ccccc3)c2)cc1` [CBK018746], 94%.

For the compound `Cc1ccc(-c2cccc(N3CCN(CCN4CCCC4)CC3)n2)cc1C` [CBK037799], the viability at 28.5 h, 10 µM was 113%.

`OCCN(CC#CCC(O)(c1ccccc1)c1ccccc1)CCO` [CBK263623]: the viability at 28.5 h, 10 µM came out at 94.1%. Still for that read-out and setting: for `CC(C)[C@@H](CO)Nc1cncc(-c2cccc(Cl)c2)n1` [CBK037261] the value was 102%.

For the compound `Cc1cccc(N2CCN(C(=O)CCc3ccsc3)C(C)C2)n1` (stereo not drawn) [CBK304069], the viability at 28.5 h, 10 µM was 96.6%. Turning to `CCC(NC(=O)CCOC)c1cn2cccnc2n1` (stereo not drawn) [CBK306560], the viability at 28.5 h, 10 µM was determined as 88.2%.

In the case of `COC(=O)C1(Cc2ccccc2-c2ccncc2)CCNC1` (stereo not drawn) [CBK281435], the viability at 28.5 h, 10 µM worked out at 85.2%.

In the case of `CSCCC(=O)Nc1ccc2ncccc2c1` [CBK159818], the viability at 28.5 h, 10 µM is 87.2%. The same measure, in the same setting: for `CCNC(=O)N1CCN(CCCC(O)c2ccc(F)cc2)CC1` (stereo not drawn) [CBK025001C] the value was 118%. For `COc1ccc(C)cc1-n1ccc(C(=O)NC2(C#N)CCSC2)n1` (stereo not drawn) [CBK304943], the viability at 28.5 h, 10 µM came to 93.1%. With `COc1ccccc1NS(=O)(=O)c1ccc(N2CCN3CCCC3C2)c(N)c1` (stereo not drawn) [CBK001266], the viability at 28.5 h, 10 µM was 92.6%. On to `Cc1cc(N2CCN(C(=O)CCc3nccs3)CC2)nc(C(C)C)n1` [CBK304778], for which the viability at 28.5 h, 10 µM is 98.8%.

On to `O=C(CCN1CCCCC1)NC1Cc2ccccc2C1` [CBK200364], for which the viability at 28.5 h, 10 µM came to 98.3%. Still for that read-out and setting: for `O=C(Nc1ccccc1)O[C@@H]1CO[C@H]2[C@@H]1OC[C@@H]2NC(=O)C1CC1` [CBK289464] the value was 88%; for `CC(=O)N1CC(C(=O)N2CC3(CCCC3)c3c(F)cccc32)C1` [CBK306292], 97.6%; for `COCCOc1ccc(C(=O)N[C@@H]2CNCCC[C@H]2O)cc1` [CBK289071], 94.6%.

`Cc1cc(C)n(C2CCN(Cc3ccc(-n4ccnc4C)cc3)CC2)n1` [CBK281976]: the viability at 28.5 h, 10 µM came out at 112%.

The same data set, now with this note: human, hela cells, % viability, bulk resorufin, single well.
Turning to `O=C(Nc1cccc(Cl)c1)N1CCC2(CC1)OCc1cc(F)ccc1O2` [CBK060722], the viability at 28.5 h, 10 µM worked out at 87.5%. The same measure, in the same setting: for `Cc1cc(/C=C2\C(=O)NC(=S)N(c3ccccc3)C2=O)c(C)n1-c1cc(C(=O)O)cc(C(=O)O)c1` [CBK263975] the value was 105%.
